pEC50: −log10 of the molar value. Like-named read-outs stand apart in the source and are kept apart here.
How the values were obtained:
[1] = test system: A/PR/8/34 strain influenza virus; experiment: microbe, parasite or virus in culture; type: cell-based, influenza virus A/PR/8/34; conditions: for inhibition at 10 µM: unidentified influenza virus, PR/8, MDCK, 72 h, read-out: Virus growth inhibition (%)
[2] = Cytotoxicity to uninfected MDCK cells (MTT method); conditions: dog, mdck cells
Description: (§1) Further, in order to evaluate the cytotoxicities to the MDCK cells of the compounds of the present invention, these compounds at the same concentration were added to cells which were not infected with virus, and the survival rate after carrying out culture in the same manner was examined by the MTT method, which is also shown in Table 1.

[3] = test system: A/PR/8/34 strain influenza virus; experiment: microbe, parasite or virus in culture; type: cell-based, influenza virus A/PR/8/34; conditions: for pEC50: unidentified influenza virus, PR/8, MDCK, 72 h, read-out: ED50 (concentration at which the cytopathic effect derived from virus was reduced by 50% as compared with a control)
B16 melanoma cells = experiment: Glycolipid biosynthesis-accelerating action in B16 melanoma cells (uptake of 14C-galactose into GSL fraction); type: cell-based; conditions: for Uptake of 14C-galactose into GSL fraction: 24 hours, control 6,100; for Acceleration of biosynthesis of glycolipids including ganglioside (in words): Table 2
Description: B16 melanoma cells derived from neuroectoderm were put into a culture plate with 12 wells in an amount of 2×10^5 cells/well and cultured for 24 hours in Dulbecco modified Eagle's media containing 10% bovine fetal serum. Thereafter, the media were exchanged with the same culture broths containing 2-acylaminopropanol compounds shown in Table 2, and ^14 C-galactose was added thereto. After 24 hours, the media were removed, the cells were washed with 1 ml of a phosphate buffer containing 0.02% EDTA, 1 ml of 0.25 % trypsin was added, and the mixtures were left to stand at 37° C. for 5 minutes. The cells were recovered by using the same culture broths and washed with a phosphate buffer, and then masses of the cells were obtained. 4 ml of methanol and chloroform were added successively to the masses of the cells to extract all GSL, followed by evaporation to dryness. Next, after this all GSL was suspended in 1 ml of water, the suspensions were dialyzed to water for 2 days to completely remove low molecules such as ^14 C-galactose, etc. The radioactivities of the GSL fractions thus obtained were measured by a liquid scintillation counter. A control is a result of carrying out an experiment in the same manner by exchanging the medium with the same amount of a culture broth not containing the compound of the present invention.

MDCK cells = experiment: Cytotoxicity to uninfected MDCK cells (MTT method); conditions: 10 μM; MDCK cells
Description: as §1

virus = conditions: Seikagaku vol. 65(8), p. 695 (1993); cited from earlier work
[4] = J. Lipid Res., Vol. 32, 713-722 (1991); cited from earlier work
[5] = 10 μM, MDCK cells, 3 days at 37° C., control 80.0
[6] = Mus musculus, B16, 24 h, 10 μM, control 100, read-out: Glycolipid biosynthesis acceleration (%)

| Structure (SMILES) | inhibition at 10 µM [1] [%] | viability at 72 h, 10 µM [2] [%] | Cytopathic effect (%) [3, 5] [%] | pEC50 [3] | Acceleration of biosynthesis of glycolipids including ganglioside (in words) (B16 melanoma cells) | Uptake of 14C-galactose into GSL fraction (B16 melanoma cells; 10 μM) | activity at 10 µM (B16 melanoma cells; [6]) [%] | other results |
| --- | --- | --- | --- | --- | --- | --- | --- | --- |
| CCCCCCCCCC(=O)N[C@@H](CN(CC)CC)[C@H](O)c1ccccc1 (relative stereo) [drawing 10 (DL-erythro), 2-decanoylamino-3-diethylamino-1-phenyl-1-propanol] | 88.5 | 100 | 9.9 | 5.82 | – | – | – | – |
| CCCCCCCCCC(=O)N[C@@H](CNC1CCC(O)CC1)[C@@H](O)c1ccccc1 (some centres unmarked) [Compound 4] | – | – | – | – | significantly accelerate biosynthesis of glycolipids including ganglioside | – | – | Uptake of 14C-galactose into GSL fraction (B16 melanoma cells; 5 μM): 9,740 cpm/mg protein; activity at 5 µM (B16 melanoma cells; Mus musculus, B16, 24 h, 5 μM, control 100, read-out: Glycolipid biosynthesis acceleration (%)): 160% |
| CCCCCCCCCC(=O)N[C@@H](CN1CCC(O)CC1)[C@@H](O)c1ccccc1 [drawing 13 (L-threo)] | – | – | – | – | significantly accelerate biosynthesis of glycolipids including ganglioside | 9,670 cpm/mg protein | 159 | – |
| CCCCCCCCCC(=O)N[C@@H](CN1CCC(O)CC1)[C@H](O)c1ccccc1 (relative stereo) [drawing 9 (DL-erythro), 2-decanoylamino-3-(4-hydroxypiperidino)-1-phenyl-1-propanol] | 100 | 100 | – | 5.30 | – | – | – | Suppression of growth of influenza virus (in words) [1]: completely suppressed growth of influenza virus; Cytotoxicity (in words) (MDCK cells): cytotoxicity at this concentration was not observed at all; Cytopathic effect (%) [3]: 0% |
| CCCCCCCCCC(=O)N[C@@H](CN1CCCCC1)[C@H](O)c1ccccc1 (relative stereo) [drawing 8 (DL-erythro), 2-decanoylamino-1-phenyl-3-piperidino-1-propanol] | 99.6 | 80 to 100 | 7.8 | – | – | – | – | – |
| CCCCCCCCCC(=O)NC(CN1CCCCC1CO)C(O)c1ccccc1 (mixture of isomers) [drawing 11 (Mixture of isomers), 2-decanoylamino-3-(2-(hydroxymethyl)-piperidino)-1-phenyl-1-propanol] | 99.7 | 80 to 100 | 3.1 | 5.82 | – | – | – | – |
| CCCCCCCCCC(=O)N[C@H](CN1CCC(O)CC1)[C@H](O)c1ccccc1 (relative stereo) [drawing 9 (DL-threo), 2-decanoylamino-3-(4-hydroxypiperidino)-1-phenyl-1-propanol] | 87.3 | 100 | 14.2 | 5.27 | – | – | – | – |
| CCCCCCCCCC(=O)N[C@H](CN1CCOCC1)[C@H](O)c1ccccc1 [D-threo-PDMP, reference compound] | 97.1 | 60 to 80 | – | – | – | – | – | Cytopathic effect (%) [3]: 44.8% |
| CCCCCCCCCC(=O)N[C@@H](CN1CCN(C)CC1)[C@@H](O)c1ccccc1 [Compound 2] | – | – | – | – | significantly accelerate biosynthesis of glycolipids including ganglioside | 10,300 cpm/mg protein | 169 | – |
| CCCCCCCCCC(=O)N[C@@H](CN1CCC(O)C1)[C@@H](O)c1ccccc1 (some centres unmarked) [Compound 3] | – | – | – | – | significantly accelerate biosynthesis of glycolipids including ganglioside | 9,380 cpm/mg protein | 161 | – |
| CCCCCCCCCC(=O)N[C@H](CN1CCCCC1)[C@H](O)c1ccccc1 (relative stereo) [drawing 8 (DL-threo), 2-decanoylamino-1-phenyl-3-piperidino-1-propanol] | 93.9 | 80 to 100 | 40.0 | – | – | – | – | – |
| CCCCCCCCCC(=O)N[C@@H](CN1CCC(O)CC1)[C@H](O)c1ccccc1 [drawing 13 (D-erythro)] | – | – | – | – | significantly accelerate biosynthesis of glycolipids including ganglioside | 11,470 cpm/mg protein | 188 | – |
| CCCCCCCCCC(=O)NC(CN1CCOCC1)C(O)c1ccccc1 (centres unmarked) [PDMP, 1-phenyl-2-decanoylamino-3-morpholino-1-propanol] | – | – | – | – | – | – | – | Antiviral activity (in words) (virus): has an antiviral activity; Passing a blood-brain barrier (in words) [4]: can pass a blood-brain barrier |
